US20050282743A1, “Molecular interactions in cells” (Arbor Vita Corporation, priority 2001, published 2005)
Where two headings read alike, the source gives them in different places. Values belong to the compound of their own block, whether it stands above or below them. Ends that are not written are not given here. Peptide text beside a SMILES is read from it. * marks the point of attachment. Biotin = O=C1N[C@H]2[C@H](CS[C@H]2CCCCC(=O)*)N1

Assays:
Format in all cases: binding
[1] = biological target: T1, PDZ protein (GST-PDZ fusion) (Homo sapiens, UniProt O14907); experiment: G' assay (10 uM PL peptide), results of TABLE 7 and TABLE 12; settings: PDZ TIP1, PDZ Domain 1
T1 construct: made in house; host or cells: E. coli (DH5alpha, BL21 or JM109)
T1 sequence (O14907 1-124): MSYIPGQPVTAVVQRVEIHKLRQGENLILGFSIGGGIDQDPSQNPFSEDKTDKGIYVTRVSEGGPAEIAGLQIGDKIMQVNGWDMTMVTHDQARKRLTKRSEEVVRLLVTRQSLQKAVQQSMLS
Outline: (§1)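 Biotinylated PL peptides at 10 uM (vs 20 uM in G^0 assay) bound to GST-PDZ fusions; PDZ protein at 5 ug/ml unless another concentration listed. Bound peptide read as A450 nm, classified 0–5 (0 = A450 0; 5 = A450 >4 repeated).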

[2] = biological target: T2, PDZ protein (GST-PDZ fusion) (Homo sapiens, UniProt P78352); experiment: as above
T2 construct: made in house; host or cells: E. coli (DH5alpha, BL21 or JM109)
Outline: as §1

[3] = biological target: T3, PDZ protein (GST-PDZ fusion) (Homo sapiens, UniProt Q12959); experiment: as above
T3 construct: made in house; host or cells: E. coli (DH5alpha, BL21 or JM109)
Outline: as §1

[4] = biological target: T4, PDZ protein (GST-PDZ fusion) (Homo sapiens, UniProt Q8NI35); experiment: as above; settings: PDZ INADL
T4 construct: made in house; host or cells: E. coli (DH5alpha, BL21 or JM109)
Outline: as §1

[5] = biological target: PDZ-domain polypeptide (GST/PDZ fusion protein); experiment: Apparent affinity (Kd) by titration of PL peptide in the G assay
Outline: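 A fixed concentration of GST/PDZ fusion protein, 5 ug/ml by default, was mixed in solution with increasing labeled PL peptide (e.g. 0.1 uM-1 mM). Reaction times ranged from 10 minutes to 2 days at 4-37° C. Complexes were separated from free peptide and detected via the label as in the G assay, apparent affinity coming from the saturating concentration.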

[6] = biological target: T5, PDZ protein (GST-PDZ fusion) (Homo sapiens, UniProt O15018); experiment: G' assay (10 uM PL peptide), results of TABLE 7 and TABLE 12
T5 construct: made in house; host or cells: E. coli (DH5alpha, BL21 or JM109)
Outline: as §1

[7] = biological target: T6, PDZ protein (GST-PDZ fusion) (Homo sapiens, UniProt P57105); experiment: as above; settings: PDZ Outer Membrane, PDZ Domain 1
T6 construct: made in house; host or cells: E. coli (DH5alpha, BL21 or JM109)
T6 sequence (P57105 1-145): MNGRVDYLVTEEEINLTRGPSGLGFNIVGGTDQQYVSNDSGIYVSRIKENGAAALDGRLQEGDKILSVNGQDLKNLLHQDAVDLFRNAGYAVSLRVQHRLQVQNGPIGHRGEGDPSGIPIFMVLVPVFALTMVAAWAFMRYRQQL
Outline: as §1

[8] = biological target: T7, PDZ protein (GST-PDZ fusion) (Homo sapiens, UniProt Q13796); experiment: as above; settings: PDZ hAPXL, PDZ Domain 1
T7 construct: made in house; host or cells: E. coli (DH5alpha, BL21 or JM109)
Outline: as §1

[9] = biological target: T8, PDZ protein (GST-PDZ fusion) (Homo sapiens, UniProt Q14160); experiment: as above
T8 construct: made in house; host or cells: E. coli (DH5alpha, BL21 or JM109)
Outline: as §1

[10] = biological target: T9, PDZ protein (GST-PDZ fusion) (Homo sapiens, UniProt Q15700); experiment: as above
T9 construct: made in house; host or cells: E. coli (DH5alpha, BL21 or JM109)
Outline: as §1

T5 sequence (O15018 whole entry, the tested form may be a part): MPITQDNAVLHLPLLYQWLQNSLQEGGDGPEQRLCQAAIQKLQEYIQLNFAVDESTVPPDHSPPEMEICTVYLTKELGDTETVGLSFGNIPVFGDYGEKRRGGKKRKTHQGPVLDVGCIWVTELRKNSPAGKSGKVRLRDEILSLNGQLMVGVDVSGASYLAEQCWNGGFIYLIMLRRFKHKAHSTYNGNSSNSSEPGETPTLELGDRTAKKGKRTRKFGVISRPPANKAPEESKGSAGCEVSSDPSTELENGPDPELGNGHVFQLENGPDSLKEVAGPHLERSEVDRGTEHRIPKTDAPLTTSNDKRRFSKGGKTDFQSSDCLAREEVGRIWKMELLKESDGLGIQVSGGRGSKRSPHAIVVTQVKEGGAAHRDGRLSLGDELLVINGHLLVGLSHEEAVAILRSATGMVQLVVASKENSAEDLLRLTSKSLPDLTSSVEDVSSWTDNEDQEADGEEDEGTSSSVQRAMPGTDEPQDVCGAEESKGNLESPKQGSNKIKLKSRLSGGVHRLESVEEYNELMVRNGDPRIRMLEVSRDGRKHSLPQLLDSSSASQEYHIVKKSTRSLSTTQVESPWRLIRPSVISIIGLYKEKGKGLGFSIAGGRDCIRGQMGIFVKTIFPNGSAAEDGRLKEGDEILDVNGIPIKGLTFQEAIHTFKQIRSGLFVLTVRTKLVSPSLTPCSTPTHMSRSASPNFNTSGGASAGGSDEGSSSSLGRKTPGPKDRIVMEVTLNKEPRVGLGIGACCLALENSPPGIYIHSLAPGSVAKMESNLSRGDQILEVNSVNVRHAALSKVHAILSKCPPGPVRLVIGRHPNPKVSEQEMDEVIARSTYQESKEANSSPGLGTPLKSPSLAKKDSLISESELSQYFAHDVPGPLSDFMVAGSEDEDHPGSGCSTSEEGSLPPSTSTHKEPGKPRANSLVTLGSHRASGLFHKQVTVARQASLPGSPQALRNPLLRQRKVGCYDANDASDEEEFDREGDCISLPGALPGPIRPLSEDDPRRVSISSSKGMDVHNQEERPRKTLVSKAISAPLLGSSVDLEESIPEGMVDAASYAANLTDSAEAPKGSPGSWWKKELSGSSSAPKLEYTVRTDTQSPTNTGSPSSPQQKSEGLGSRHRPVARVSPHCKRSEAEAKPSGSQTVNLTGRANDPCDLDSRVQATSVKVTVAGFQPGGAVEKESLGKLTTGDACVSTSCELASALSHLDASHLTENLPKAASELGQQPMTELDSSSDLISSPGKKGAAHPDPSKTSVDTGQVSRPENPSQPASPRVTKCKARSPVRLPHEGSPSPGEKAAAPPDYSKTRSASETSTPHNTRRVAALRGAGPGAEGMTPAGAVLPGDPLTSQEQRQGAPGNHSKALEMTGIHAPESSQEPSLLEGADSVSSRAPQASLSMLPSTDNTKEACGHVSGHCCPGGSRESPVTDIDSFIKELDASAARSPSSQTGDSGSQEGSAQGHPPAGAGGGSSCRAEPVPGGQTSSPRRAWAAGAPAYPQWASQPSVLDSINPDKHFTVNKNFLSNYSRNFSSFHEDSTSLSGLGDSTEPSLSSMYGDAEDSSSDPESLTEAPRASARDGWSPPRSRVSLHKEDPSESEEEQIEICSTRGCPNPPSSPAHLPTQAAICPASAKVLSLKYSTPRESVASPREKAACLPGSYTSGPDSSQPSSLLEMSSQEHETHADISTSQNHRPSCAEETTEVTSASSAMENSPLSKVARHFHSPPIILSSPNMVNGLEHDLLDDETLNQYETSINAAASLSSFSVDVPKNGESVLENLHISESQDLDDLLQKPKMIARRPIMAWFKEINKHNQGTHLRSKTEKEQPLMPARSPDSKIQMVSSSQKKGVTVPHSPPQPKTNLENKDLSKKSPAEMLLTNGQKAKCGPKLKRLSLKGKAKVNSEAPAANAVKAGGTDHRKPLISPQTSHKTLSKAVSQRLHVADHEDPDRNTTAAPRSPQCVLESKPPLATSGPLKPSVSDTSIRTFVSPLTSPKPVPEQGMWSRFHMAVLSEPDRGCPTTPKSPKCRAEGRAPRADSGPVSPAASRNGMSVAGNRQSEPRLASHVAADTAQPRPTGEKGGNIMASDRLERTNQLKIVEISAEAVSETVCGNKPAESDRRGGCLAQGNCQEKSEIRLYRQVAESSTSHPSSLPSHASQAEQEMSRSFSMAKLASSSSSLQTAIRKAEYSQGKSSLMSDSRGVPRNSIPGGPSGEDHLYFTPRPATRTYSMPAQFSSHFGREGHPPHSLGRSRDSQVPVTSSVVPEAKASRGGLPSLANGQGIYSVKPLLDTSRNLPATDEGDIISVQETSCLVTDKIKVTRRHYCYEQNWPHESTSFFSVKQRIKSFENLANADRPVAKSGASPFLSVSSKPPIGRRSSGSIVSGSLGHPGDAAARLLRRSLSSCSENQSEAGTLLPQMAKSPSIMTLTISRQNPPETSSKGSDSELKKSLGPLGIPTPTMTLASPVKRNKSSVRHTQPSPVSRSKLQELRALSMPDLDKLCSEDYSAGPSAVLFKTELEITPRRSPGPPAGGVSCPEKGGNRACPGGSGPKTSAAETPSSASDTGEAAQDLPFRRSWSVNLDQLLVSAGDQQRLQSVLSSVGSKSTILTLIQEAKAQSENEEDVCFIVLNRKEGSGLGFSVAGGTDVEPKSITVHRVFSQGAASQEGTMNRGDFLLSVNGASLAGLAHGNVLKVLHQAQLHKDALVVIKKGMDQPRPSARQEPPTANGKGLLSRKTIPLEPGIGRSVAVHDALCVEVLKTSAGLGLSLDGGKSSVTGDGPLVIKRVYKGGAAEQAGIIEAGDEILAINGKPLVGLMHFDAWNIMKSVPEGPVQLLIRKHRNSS
T8 sequence (Q14160 whole entry, the tested form may be a part): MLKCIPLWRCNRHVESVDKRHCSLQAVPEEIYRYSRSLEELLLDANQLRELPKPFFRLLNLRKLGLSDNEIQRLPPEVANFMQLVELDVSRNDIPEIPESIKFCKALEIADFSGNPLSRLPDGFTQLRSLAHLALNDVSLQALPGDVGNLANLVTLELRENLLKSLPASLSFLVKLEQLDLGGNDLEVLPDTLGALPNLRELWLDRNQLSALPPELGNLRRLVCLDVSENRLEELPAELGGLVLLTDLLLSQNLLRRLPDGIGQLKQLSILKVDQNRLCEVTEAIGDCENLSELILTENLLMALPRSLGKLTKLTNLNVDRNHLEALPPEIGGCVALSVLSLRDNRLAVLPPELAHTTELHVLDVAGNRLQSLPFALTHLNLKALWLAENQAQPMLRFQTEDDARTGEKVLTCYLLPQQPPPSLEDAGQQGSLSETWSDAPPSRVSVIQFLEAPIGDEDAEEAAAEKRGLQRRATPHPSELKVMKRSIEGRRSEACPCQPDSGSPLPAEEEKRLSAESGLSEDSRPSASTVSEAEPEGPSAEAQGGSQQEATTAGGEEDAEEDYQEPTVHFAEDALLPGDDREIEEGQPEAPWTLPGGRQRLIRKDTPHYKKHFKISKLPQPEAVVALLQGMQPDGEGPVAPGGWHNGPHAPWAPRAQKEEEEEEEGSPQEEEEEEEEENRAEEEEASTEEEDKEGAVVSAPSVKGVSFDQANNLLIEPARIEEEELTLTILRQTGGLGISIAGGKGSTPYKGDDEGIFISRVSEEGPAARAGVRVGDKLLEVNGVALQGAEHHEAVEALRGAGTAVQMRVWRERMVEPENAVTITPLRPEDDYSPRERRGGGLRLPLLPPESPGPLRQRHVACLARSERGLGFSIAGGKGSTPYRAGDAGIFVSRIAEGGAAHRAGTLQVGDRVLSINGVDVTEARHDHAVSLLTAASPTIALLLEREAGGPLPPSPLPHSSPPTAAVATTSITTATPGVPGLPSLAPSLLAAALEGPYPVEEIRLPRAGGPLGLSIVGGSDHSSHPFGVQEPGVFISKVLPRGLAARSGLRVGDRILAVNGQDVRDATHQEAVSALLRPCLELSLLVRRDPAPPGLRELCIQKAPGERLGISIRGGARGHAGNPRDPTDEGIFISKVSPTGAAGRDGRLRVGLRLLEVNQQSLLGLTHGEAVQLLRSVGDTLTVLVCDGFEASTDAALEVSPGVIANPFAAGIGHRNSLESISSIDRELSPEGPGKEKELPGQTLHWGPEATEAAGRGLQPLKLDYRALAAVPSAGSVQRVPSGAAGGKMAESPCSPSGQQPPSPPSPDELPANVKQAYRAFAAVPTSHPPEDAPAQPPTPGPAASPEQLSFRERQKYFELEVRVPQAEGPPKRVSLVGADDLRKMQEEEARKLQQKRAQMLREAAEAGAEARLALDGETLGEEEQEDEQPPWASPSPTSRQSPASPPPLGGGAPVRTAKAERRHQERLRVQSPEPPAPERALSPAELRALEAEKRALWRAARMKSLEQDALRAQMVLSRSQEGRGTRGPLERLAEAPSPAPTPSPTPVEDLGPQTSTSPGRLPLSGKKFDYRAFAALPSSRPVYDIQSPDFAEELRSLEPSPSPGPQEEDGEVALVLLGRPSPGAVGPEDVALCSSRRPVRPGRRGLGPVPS

Compound: CC(C)C[C@H](NC(=O)[C@H](C)NC(=O)[C@@H](NC(=O)[C@H](CCC(=O)O)NC(=O)[C@H](CCCNC(=N)N)NC(=O)[C@H](CCCNC(=N)N)NC(=O)CNC(=O)[C@H](CCC(N)=O)NC(=O)[C@H](CC(C)C)NC(=O)[C@H](CCCNC(=N)N)NC(=O)CNC(=O)CNC(=O)[C@H](CCCNC(=N)N)NC(=O)[C@H](C)NC(=O)[C@H](CO)NC(=O)[C@H](CCCNC(=N)N)NC(=O)CNC(=O)CNC(=O)[C@H](C)NC(=O)[C@H](C)NC(=O)CCCC[C@@H]1SC[C@@H]2NC(=O)N[C@@H]21)[C@@H](C)O)C(=O)O [HPV E6 33 (modified)] (Biotin-AAGGRSARGGRLQGRRETAL-OH; C-terminus assumed)
Classification [1]: 5 (A450 nm of 4 more than 2× repeated)
Classification ([6]; PDZ AIPC, PDZ Domain 1): 1 (A450 nm 0-1)
Classification [7]: 5 (A450 nm of 4 more than 2× repeated)
Classification ([2]; PDZ PSD95, PDZ Domain 1): 2 (A450 nm 1-2)
Classification ([2]; PDZ PSD95, PDZ Domain 1, 2, 3): 5 (A450 nm of 4 more than 2× repeated)
Classification ([2]; PDZ PSD95, PDZ Domain 3): 5 (A450 nm of 4 more than 2× repeated)
Classification ([3]; PDZ DLG1, PDZ Domain 1): 3 (A450 nm 2-3)
Classification ([3]; PDZ DLG1, PDZ Domain 2): 5 (A450 nm of 4 more than 2× repeated)
Classification [8]: 3 (A450 nm 2-3)
Classification ([9]; PDZ KIAA0147, PDZ Domain 1): 5 (A450 nm of 4 more than 2× repeated)
Classification ([9]; PDZ KIAA0147, PDZ Domain 3): 2 (A450 nm 1-2)
Classification ([10]; PDZ DLG2, PDZ Domain 1): 1 (A450 nm 0-1)
Classification ([10]; PDZ DLG2, PDZ Domain 2): 3 (A450 nm 2-3)

Compound: CC(C)C[C@H](NC(=O)[C@H](CCCNC(=N)N)NC(=O)CNC(=O)CNC(=O)[C@H](CCCNC(=N)N)NC(=O)[C@H](C)NC(=O)[C@@H]1CCCN1C(=O)[C@H](CCCNC(=N)N)NC(=O)CNC(=O)CNC(=O)[C@@H](NC(=O)[C@H](C)NC(=O)CCCC[C@@H]1SC[C@@H]2NC(=O)N[C@@H]21)C(C)C)C(=O)N[C@@H](CCC(N)=O)C(=O)NCC(=O)N[C@@H](CCCNC(=N)N)C(=O)N[C@@H](CCCNC(=N)N)C(=O)N[C@@H](CCC(N)=O)C(=O)N[C@H](C(=O)N[C@@H](CCC(N)=O)C(=O)N[C@H](C(=O)O)C(C)C)[C@@H](C)O [HPV E6 58 (modified)] (Biotin-AVGGRPARGGRLQGRRQTQV-OH; C-terminus assumed)
Classification [1]: 4 (A450 nm 3-4)
Classification [7]: 5 (A450 nm of 4 more than 2× repeated)
Classification ([2]; PDZ PSD95, PDZ Domain 1): 5 (A450 nm of 4 more than 2× repeated)
Classification ([2]; PDZ PSD95, PDZ Domain 1, 2, 3): 5 (A450 nm of 4 more than 2× repeated)
Classification ([2]; PDZ PSD95, PDZ Domain 3): 5 (A450 nm of 4 more than 2× repeated)
Classification ([3]; PDZ DLG1, PDZ Domain 1): 5 (A450 nm of 4 more than 2× repeated)
Classification ([3]; PDZ DLG1, PDZ Domain 2): 5 (A450 nm of 4 more than 2× repeated)
Classification ([9]; PDZ KIAA0147, PDZ Domain 1): 2 (A450 nm 1-2)
Classification ([10]; PDZ DLG2, PDZ Domain 2): 5 (A450 nm of 4 more than 2× repeated)
Classification ([4]; PDZ Domain 8): 4 (A450 nm 3-4)

Compound: CC(C)C[C@H](NC(=O)[C@H](CC(C)C)NC(=O)[C@@H](NC(=O)[C@H](CC(=O)O)NC(=O)CCCC[C@@H]1SC[C@@H]2NC(=O)N[C@@H]21)[C@@H](C)O)C(=O)N[C@@H](CC(C)C)C(=O)N[C@H](C(=O)N[C@@H](CCC(=O)O)C(=O)N[C@@H](CC(N)=O)C(=O)N[C@@H](CCC(=O)O)C(=O)NCC(=O)N[C@@H](CC(=O)O)C(=O)N[C@@H](CCCCN)C(=O)N[C@H](C(=O)N[C@@H](CCC(=O)O)C(=O)N[C@@H](CCC(=O)O)C(=O)N[C@@H](CCC(N)=O)C(=O)N[C@H](C(=O)N[C@@H](CO)C(=O)N[C@@H](Cc1ccc(O)cc1)C(=O)N[C@H](C(=O)O)C(C)C)C(C)C)[C@@H](C)O)[C@@H](C)O [5H2B_HUMAN] (Biotin-DTLLLTENEGDKTEEQVSYV-OH; C-terminus assumed)
Kd ([5]; PDZ BAI-1, PDZ Domain 3, read-out: Peptide Optimal Conc (Kd by titration of the PL peptide)): 2000 nM

The remaining lines, values ahead:

Classification [1]: 1 (A450 nm 0-1)
Classification ([2]; PDZ PSD95, PDZ Domain 1, 2, 3): 2 (A450 nm 1-2)
Classification ([3]; PDZ DLG1, PDZ Domain 1, 2): 2 (A450 nm 1-2)
Classification ([4]; PDZ Domain 8): 1 (A450 nm 0-1)
Kd ([5]; PDZ SHANK, PDZ Domain 1, read-out: Peptide Optimal Conc (Kd by titration of the PL peptide)): 300 nM
Compound: CC(C)C[C@H](NC(=O)CNC(=O)[C@@H](NC(=O)[C@H](CO)NC(=O)[C@H](CC(N)=O)NC(=O)[C@H](Cc1ccccc1)NC(=O)CNC(=O)[C@H](C)NC(=O)[C@H](C)NC(=O)[C@H](Cc1ccccc1)NC(=O)[C@@H](NC(=O)CCCC[C@@H]1SC[C@@H]2NC(=O)N[C@@H]21)[C@@H](C)O)[C@@H](C)O)C(=O)N1CCC[C@H]1C(=O)N[C@@H](Cc1c[nH]cn1)C(=O)N[C@@H](CO)C(=O)N[C@H](C(=O)N[C@H](C(=O)N[C@@H](CCCNC(=N)N)C(=O)N[C@H](C(=O)O)C(C)C)[C@@H](C)O)[C@@H](C)O [Neuroligin] (Biotin-TFAAGFNSTGLPHSTTRV-OH; C-terminus assumed)

Classification ([6]; PDZ AIPC, PDZ Domain 1): 1 (A450 nm 0-1)
Classification ([6]; PDZ AIPC, PDZ Domain 4): 1 (A450 nm 0-1)
Classification ([6]; PDZ KIAA0300, PDZ Domain 1): 1 (A450 nm 0-1)
Classification ([6]; PDZ KIAA0300, PDZ Domain 2): 1 (A450 nm 0-1)
Classification ([4]; PDZ Domain 3): 1 (A450 nm 0-1)
Kd ([5]; PDZ HEMBA 1003117, PDZ Domain 1, titration of the PL peptide, read-out: Peptide Optimal Conc (Kd, dissociation constant)): 4000 nM
Compound: CC[C@H](C)[C@H](NC(=O)[C@H](Cc1ccc(O)cc1)NC(=O)[C@H](CC(C)C)NC(=O)[C@H](CCC(N)=O)NC(=O)[C@H](Cc1c[nH]cn1)NC(=O)[C@H](CO)NC(=O)[C@H](C)NC(=O)[C@H](CC(C)C)NC(=O)[C@@H](NC(=O)[C@H](CC(=O)O)NC(=O)[C@H](CCSC)NC(=O)[C@H](Cc1ccccc1)NC(=O)[C@@H]1CCCN1C(=O)[C@H](CCCNC(=N)N)NC(=O)[C@@H](NC(=O)[C@H](CC(C)C)NC(=O)[C@H](CC(N)=O)NC(=O)[C@H](CC(=O)O)NC(=O)[C@@H](NC(=O)[C@H](CO)NC(=O)CCCC[C@@H]1SC[C@@H]2NC(=O)N[C@@H]21)[C@@H](C)O)C(C)C)[C@@H](C)O)C(=O)O [presenilin-2] (Biotin-STDNLVRPFMDTLASHQLYI-OH; C-terminus assumed)

Kd ([5]; PDZ HEMBA 1003117, PDZ Domain 1, read-out: Peptide Optimal Conc (Kd by titration of the PL peptide)): 300 nM
Compound: CC(C)C[C@H](NC(=O)[C@H](Cc1c[nH]c2ccccc12)NC(=O)[C@H](Cc1c[nH]cn1)NC(=O)[C@H](CCCNC(=N)N)NC(=O)[C@H](CC(C)C)NC(=O)[C@@H](NC(=O)[C@H](Cc1ccccc1)NC(=O)[C@H](CCC(N)=O)NC(=O)[C@H](CCCNC(=N)N)NC(=O)[C@@H](NC(=O)[C@H](CCC(=O)O)NC(=O)CNC(=O)[C@H](CCCNC(=N)N)NC(=O)[C@H](CC(=O)O)NC(=O)[C@@H](NC(=O)[C@H](CC(C)C)NC(=O)[C@H](CCC(=O)O)NC(=O)[C@H](CCCNC(=N)N)NC(=O)CCCC[C@@H]1SC[C@@H]2NC(=O)N[C@@H]21)C(C)C)C(C)C)[C@@H](C)O)C(=O)N[C@@H](CCCCN)C(=O)N[C@H](C(=O)O)C(C)C [Dopamine transporter (Na+-dependent)] (Biotin-RELVDRGEVRQFTLRHWLKV-OH; C-terminus assumed)

Classification [1]: 3 (A450 nm 2-3)
Classification ([6]; PDZ AIPC, PDZ Domain 1): 2 (A450 nm 1-2)
Classification [7]: 5 (A450 nm of 4 more than 2× repeated)
Classification ([2]; PDZ PSD95, PDZ Domain 1): 1 (A450 nm 0-1)
Classification ([2]; PDZ PSD95, PDZ Domain 1, 2, 3): 2 (A450 nm 1-2)
Classification ([3]; PDZ DLG1, PDZ Domain 1): 1 (A450 nm 0-1)
Classification ([3]; PDZ DLG1, PDZ Domain 1, 2): 3 (A450 nm 2-3)
Classification ([3]; PDZ DLG1, PDZ Domain 2): 2 (A450 nm 1-2)
Classification ([9]; PDZ KIAA0147, PDZ Domain 2): 3 (A450 nm 2-3)
Classification ([9]; PDZ KIAA0147, PDZ Domain 4): 1 (A450 nm 0-1)
Classification ([10]; PDZ DLG2, PDZ Domain 2): 1 (A450 nm 0-1)
Classification ([4]; PDZ Domain 5): 1 (A450 nm 0-1)
Classification ([4]; PDZ Domain 8): 2 (A450 nm 1-2)
Compound: PYSELNYETSHYPASPDSWV (Biotin-PYSELNYETSHYPASPDSWV) [catenin - delta 2]
